6 molecules from BindingDB's records for doi:10.1021/jm030354b (Millennium Pharmaceuticals, 2004) can be followed below.

Assay [1] has as its target T1, Integrin alpha-IIb/beta-3 (Homo sapiens, UniProt P08514+P05106). Kind of assay: Inhibition of platelet aggregation induced by 20 uM adenosine 5-diphosphate (ADP) in citreated human platelet rich plasma (h-PRP).
Assay [2] concerns the target T1, Integrin alpha-IIb/beta-3. Kind of assay: Inhibition of human platelet (h-PRP) aggregation induced by 20 uM ADP with PPACK.
Assay [3] can be described thus: Inhibition of citreated human (h-PRP) platelet aggregation induced by 5 uM TRAP6.
The nature of assay [4]: Inhibition of human platelet (h-PRP) aggregation induced by 5 uM TRAP6 with PPACK.
A short description of assay [5]: Inhibition of human platelet (h-PRP) aggregation induced by 20 uM ADP with PPACK.
A short description of assay [6]: Inhibition of citreated human platelet (h-PRP) aggregation induced by 4 ug/mL collagen.
Assay [7] in a line: Inhibition of human platelet (h-PRP) aggregation induced by 4 ug/mL collagen with PPACK.

In general, IC50 refers to the concentration at which inhibition is half-maximal. The low end stands for higher potency, the high end for lower potency.

T1 sequence (P05106 27-788 limits assumed): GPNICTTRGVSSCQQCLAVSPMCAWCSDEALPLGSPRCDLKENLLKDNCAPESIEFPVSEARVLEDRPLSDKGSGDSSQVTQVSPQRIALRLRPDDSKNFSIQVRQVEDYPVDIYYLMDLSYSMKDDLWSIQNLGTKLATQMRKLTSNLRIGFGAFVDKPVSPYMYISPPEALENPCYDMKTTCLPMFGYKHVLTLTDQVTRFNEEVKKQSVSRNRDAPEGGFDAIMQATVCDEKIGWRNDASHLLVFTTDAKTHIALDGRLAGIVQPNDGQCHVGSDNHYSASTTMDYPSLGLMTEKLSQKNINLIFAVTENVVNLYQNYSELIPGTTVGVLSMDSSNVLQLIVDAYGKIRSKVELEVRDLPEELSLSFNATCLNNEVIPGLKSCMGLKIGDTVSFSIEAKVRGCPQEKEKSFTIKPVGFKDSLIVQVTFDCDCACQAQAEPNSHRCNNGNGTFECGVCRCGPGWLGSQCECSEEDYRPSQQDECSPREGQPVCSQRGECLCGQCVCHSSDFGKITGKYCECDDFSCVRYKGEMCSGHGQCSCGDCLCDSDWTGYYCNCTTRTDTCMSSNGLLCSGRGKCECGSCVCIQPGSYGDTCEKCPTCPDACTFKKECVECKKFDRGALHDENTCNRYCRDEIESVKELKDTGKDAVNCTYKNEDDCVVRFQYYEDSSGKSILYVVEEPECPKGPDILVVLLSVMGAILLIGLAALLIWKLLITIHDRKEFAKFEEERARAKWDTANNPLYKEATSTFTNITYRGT
T1 sequence (P08514 32-887 limits assumed): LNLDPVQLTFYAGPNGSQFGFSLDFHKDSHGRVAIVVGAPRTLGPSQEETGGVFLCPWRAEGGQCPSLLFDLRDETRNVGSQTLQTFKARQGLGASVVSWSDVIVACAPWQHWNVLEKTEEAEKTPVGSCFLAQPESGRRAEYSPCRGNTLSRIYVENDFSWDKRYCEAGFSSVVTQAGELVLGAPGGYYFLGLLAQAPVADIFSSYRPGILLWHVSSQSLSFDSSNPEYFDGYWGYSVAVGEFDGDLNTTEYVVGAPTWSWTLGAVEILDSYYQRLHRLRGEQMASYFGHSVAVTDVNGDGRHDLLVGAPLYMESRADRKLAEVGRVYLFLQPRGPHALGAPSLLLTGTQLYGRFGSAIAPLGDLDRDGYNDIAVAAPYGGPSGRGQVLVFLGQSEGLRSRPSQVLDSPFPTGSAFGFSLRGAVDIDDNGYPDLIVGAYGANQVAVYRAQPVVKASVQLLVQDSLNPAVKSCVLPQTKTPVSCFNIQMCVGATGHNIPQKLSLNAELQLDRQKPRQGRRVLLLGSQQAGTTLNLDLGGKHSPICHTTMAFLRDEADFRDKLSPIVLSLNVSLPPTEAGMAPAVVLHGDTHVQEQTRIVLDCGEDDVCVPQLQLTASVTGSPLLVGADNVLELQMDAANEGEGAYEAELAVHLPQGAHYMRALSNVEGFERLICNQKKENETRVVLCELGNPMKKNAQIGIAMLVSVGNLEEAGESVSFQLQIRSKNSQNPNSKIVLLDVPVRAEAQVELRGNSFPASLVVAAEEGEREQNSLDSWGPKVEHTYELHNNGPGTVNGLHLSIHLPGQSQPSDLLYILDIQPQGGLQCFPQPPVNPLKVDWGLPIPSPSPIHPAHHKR
T1 sequence (P08514 891-1039 limits assumed): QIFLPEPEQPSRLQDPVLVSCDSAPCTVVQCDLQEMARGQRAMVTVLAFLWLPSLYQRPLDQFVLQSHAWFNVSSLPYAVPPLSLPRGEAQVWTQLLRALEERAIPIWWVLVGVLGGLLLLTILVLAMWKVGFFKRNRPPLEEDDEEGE

As for `N=C(N)c1ccc(N2CCC3(CCN(C(=O)NCCC(=O)O)CC3)C2=O)cc1` [3-{[2-(4-Carbamimidoyl-phenyl)-1-oxo-2,8-diaza-spiro[4.5]decane-8-carbonyl]-amino}-propionic acid], the IC50 in assay [1] was found to be 53 nM; in assay [2], 110 nM; in assay [3], 120 nM; in assay [4] it was 365 nM.

In the case of `N=C(N)c1ccc(N2CCC3(CCN(C(=O)CCCC(=O)O)CC3)C2=O)cc1` [5-[2-(4-Carbamimidoyl-phenyl)-1-oxo-2,8-diaza-spiro[4.5]dec-8-yl]-5-oxo-pentanoic acid], the IC50 in assay [1] came to 54 nM; in assay [3], 123 nM; in assay [5], 168 nM; in assay [4], 368 nM; in assay [6], 175 nM; in assay [7] it was 464 nM.

Consider `CCOC(=O)COC1CCN(C(=O)[C@H](C)NC(=O)c2ccc(C(=N)NO)cc2)CC1` [((S)-1-{2-[4-(N-Hydroxycarbamimidoyl)-benzoylamino]-propionyl}-piperidin-4-yloxy)-acetic acid ethyl ester], for which the IC50 stood at 51 nM in assay [1], 147 nM in assay [3], 72 nM in assay [5] and 182 nM in assay [4].

As for `C[C@@H](CC(=O)O)CC(=O)N1CCC2(CC1)CCN(c1ccc(C(=N)N)cc1)C2=O` [(R)-5-[2-(4-Carbamimidoyl-phenyl)-1-oxo-2,8-diaza-spiro[4.5]dec-8-yl]-3-methyl-5-oxo-pentanoic acid], half-maximal inhibition in assay [5] (IC50) required 112 nM.

`CCOC(=O)CCNC(=O)N[C@H]1CCN(c2ccc(C(=N)N)cc2)C1=O` [SC-57099B]: the IC50 in assay [1] turned out to be 68 nM; in assay [3], 166 nM; in assay [5], 137 nM; in assay [4] it was 362 nM.

Turning to `N=C(N)c1ccc(N2CCC3(CCN(C(=O)COCC(=O)O)CC3)C2=O)cc1` [{2-[2-(4-Carbamimidoyl-phenyl)-1-oxo-2,8-diaza-spiro[4.5]dec-8-yl]-2-oxo-ethoxy}-acetic acid], the IC50 in assay [1] was 108 nM; in assay [2], 260 nM; in assay [3] it was 273 nM; in assay [4], 691 nM; in assay [6] it was 393 nM; in assay [7] it was 812 nM.
